# Results reported in patent publication US20200338042A1, “USE OF DAPHNETIN IN TREATMENT OF AGE-RELATED COGNITIVE DECLINE” (XI'AN JIAOTONG UNIVERSITY, priority 2019, published 2020).
# Key:
# Assay type in all cases: in vivo
# [1] = system: APP/PS1 transgenic mice; assay: Morris water maze experiment in APP/PS1 transgenic mice; settings: for path length for finding the platform in water maze: FIG. 1B
# Excerpt: (§1) APP/PS1 transgenic mouse model as the Alzheimer's disease transgenic mouse model was used in the experiments. The APP/PS1 double-transgenic mice overexpressing human Aβ precursor protein (APP) and presenilin 1 (PS1) in the brains can simulate typical pathological and neurological symptoms, such as Aβ deposition and cognitive function degeneration, of human AD.
# A water maze experiment was used to observe the effect of daphnetin for improving the cognitive function of the mice.
# The 3-month-old APP/PS1 transgenic mice and control mice were purchased from the Model Animal Center of Nanjing University. All mice were fed in an environment with a temperature from 23° C. to 25° C., a humidity of 60%, and a 12 h/12 h day/night light cycles. Mice had free access to food and water during the experiment.
# After adapting to the feeding environment, the experimental mice were divided into four groups: 1) a group of wild type (WT) mice to which double-distilled water (ddH2O) was daily administered intragastrically (Group WT+ddH2O), the number (n) of the mice is 11 (n=11); 2) a group of wild type mice to which daphnetin was daily administered intragastrically at 100 mg/kg/day (Group WT+Daphnetin), n=12; 3) a group of APP/PS1 mice to which ddH2O was daily administered intragastrically (Group AD+ddH2O), n=15; 4) a group of APP/PS1 mice to which daphnetin was daily administered intragastrically at 100 mg/kg/day (Group AD+Daphnetin), n=14. The entire experiment was lasted for 12 months.
# The daily intragastric administrations of daphnetin or ddH2O were lasting for 9 months to corresponding groups of mice before the water maze experiment.
# Morris water maze experiment is a classic way to test spatial learning and memory abilities in mice. The experiment was conducted in a round swimming pool with a diameter of 120 cm, divided into four quadrants I, II, III, and IV. A small round platform with a diameter of 7.5 cm was placed in the center the quadrant IV, and submerged 1 cm below the water surface. Four different-shaped markers as visual cues were placed corresponding to the four quadrants on the curtain support around the swimming pool. During the experiment, the water temperature was kept at 25° C., the surroundings were kept quiet, and the swimming pool was isolated from the external environment by the curtain. Each mouse was allowed to swim freely in the swimming pool for 60 seconds (s) on the day before the formal experiment to adapt to the swimming environment. […] The camera placed on the top of the pool recorded the paths of the mice finding the hidden platform in the swimming pool. […] The times and distances that the mice travels to the platform recorded by the camera video tracking system were used to analyze the learning and memory of the mice. […]
# [2] = system: Aβ42; assay: ELISA detection of soluble Aβ42 in cerebral cortex tissues of APP/PS1 mice; settings: Group AD+Daphnetin (APP/PS1 mice, 100 mg/kg/day intragastrically) compared to Group AD+ddH2O; one week after water maze; FIG. 2B
# Excerpt: as §1
# (§2) The contents of Aβ40 and Aβ42 in the brain were detected by the enzyme-linked immunosorbent assay (ELISA) method to observe the effect of daphnetin for ameliorating abnormal protein deposition of the mice.
# (§3) Daphnetin was purchased from Nanjing Puyi Biotechnology Co., Ltd.; Aβ40 and […] ELISA detection kits were purchased from Invitrogen Corporation. […]
# (§4) Aβ plaque is a significant pathological feature of Alzheimer's disease. As Aβ40 and Aβ42 are most common in the process of producing Aβ, the contents of soluble Aβ40 and Aβ42 in the cerebral cortex tissues were detected by the ELISA method.
# (§5) First, the cortex tissue was homogenized using a guanidine salt buffer (5 mol/L guanidine hydrochloride/50 mmol Tris HCl), and the tissue homogenate was centrifuged at 4° C. for 10 minutes at 10,000 g. […] The absorbance (OD450) at a wavelength of 450 nm was measured by a FlexStage3 microplate reader. Protein quantification was performed by using BCA method for ELISA protein calibration. […]
# [3] = system: Aβ40; assay: ELISA detection of soluble Aβ40 in cerebral cortex tissues of APP/PS1 mice; settings: Group AD+Daphnetin (APP/PS1 mice, 100 mg/kg/day intragastrically) compared to Group AD+ddH2O; one week after water maze; FIG. 2A
# Excerpt: as §1, §2, §3, §4, §5
compound,measurement,setting,value
"O=c1ccc2ccc(O)c(O)c2o1 [Daphnetin, 7,8-dihydroxycoumarin]","AUC of swimming time (escape latency) in water maze, Group AD+ddH2O compared to Group AD+Daphnetin","[1]; 5-day training, worded as AD+ddH2O relative to AD+Daphnetin (100 mg/kg/day intragastrically, 9 months), i.e. lower AUC with daphnetin, FIG. 1C",increased significantly
same,path length for finding the platform in water maze,"[1]; day 4 of training, Group AD+Daphnetin (APP/PS1 mice, 100 mg/kg/day intragastrically, 9 months) compared to Group AD+ddH2O",significant shortened
same,escape latency in water maze (time to find the escape platform),"[1]; day 5 of training, Group AD+Daphnetin (APP/PS1 mice, 100 mg/kg/day intragastrically, 9 months) compared to Group AD+ddH2O, FIG. 1A",significantly shortened
same,path length for finding the platform in water maze,"[1]; day 5 of training, Group AD+Daphnetin (APP/PS1 mice, 100 mg/kg/day intragastrically, 9 months) compared to Group AD+ddH2O",significant shortened
same,level of Aβ42 in the cerebral cortex tissues,[2],significantly reduced
same,level of Aβ40 in the cerebral cortex tissues,[3],significantly reduced
